Measurements published in article PMC5107250, “Identification of Novel Inhibitors against Coactivator Associated Arginine Methyltransferase 1 Based on Virtual Screening and Biological Assays” (BioMed Research International, 2016).

Tests used:
K562 (myeloid leukemia) = assay: Cell viability (MTT) assay, K562; format: cell-based, human; settings: 24 hrs, 48 hrs, 72 hrs, Figure 2
Procedure: (§1) The three cell lines, HELA, K562, and MCF7, were purchased from the American Type Culture Collection (ATCC). HELA, K562, and MCF7 were cultured in DMEM (Life Technologies) supplemented with 10% FBS. All of the cell lines were seeded into 96-well plates at an appropriate density and then treated with compounds of different concentrations or DMSO control. After 24 hrs, 48 hrs, and 72 hrs, cell viabilities were measured by the MTT assay. It has been reported that CARM1 was a potential target in many cancers; thus it is well accepted that inhibiting CARM1 could affect cancer cell proliferation. In this study, three human tumor cell lines including HELA (cervical cancer), K562 (myeloid leukemia), and MCF7 (breast cancer) were chosen to evaluate the cellular activity of the two compounds DC_C11 and DC_[…]. Sinefungin, a pan-PRMTs inhibitor which has the same scaffold as the cofactor SAM does, was evaluated for control experiment. […] In the three cell lines, DC_[…] presents better antiproliferative cellular activity, which is consistent with their inhibitory activity in vitro. Combined with the biological data in vitro, we confirmed that compounds DC_C11 and DC_[…] are cell membrane permeable, which presented promising activity both in vitro and in cellular environment.  Figure 2 Antiproliferative effect of DC_C11 and DC_[…] on several cancer cell lines. (a-c) Time-dependent and dose-dependent inhibitory effect of DC_C11 on HELA, K562, and MCF7 within 24 hrs, 48 hrs, and 72 hrs, respectively. (d-f) Time-dependent and dose-dependent inhibitory effect of DC_[…] on HELA, K562, and MCF7 within 24 hrs, 48 hrs, and 72 hrs, respectively. (g-i) Time-dependent and dose-dependent inhibitory effect of Sinefungin on HELA, K562, and MCF7 within 24 hrs, 48 hrs, and 72 hrs, respectively.

CARM1 = target: T1, CARM1 (Homo sapiens, UniProt Q86X55); assay: AlphaLISA CARM1 enzyme inhibition assay; format: biochemical; settings: biotinylated H3 peptide 50 nM, SAM 300 nM, enzyme 0.1 nM, in duplicate
T1 sequence (Q86X55 1-608): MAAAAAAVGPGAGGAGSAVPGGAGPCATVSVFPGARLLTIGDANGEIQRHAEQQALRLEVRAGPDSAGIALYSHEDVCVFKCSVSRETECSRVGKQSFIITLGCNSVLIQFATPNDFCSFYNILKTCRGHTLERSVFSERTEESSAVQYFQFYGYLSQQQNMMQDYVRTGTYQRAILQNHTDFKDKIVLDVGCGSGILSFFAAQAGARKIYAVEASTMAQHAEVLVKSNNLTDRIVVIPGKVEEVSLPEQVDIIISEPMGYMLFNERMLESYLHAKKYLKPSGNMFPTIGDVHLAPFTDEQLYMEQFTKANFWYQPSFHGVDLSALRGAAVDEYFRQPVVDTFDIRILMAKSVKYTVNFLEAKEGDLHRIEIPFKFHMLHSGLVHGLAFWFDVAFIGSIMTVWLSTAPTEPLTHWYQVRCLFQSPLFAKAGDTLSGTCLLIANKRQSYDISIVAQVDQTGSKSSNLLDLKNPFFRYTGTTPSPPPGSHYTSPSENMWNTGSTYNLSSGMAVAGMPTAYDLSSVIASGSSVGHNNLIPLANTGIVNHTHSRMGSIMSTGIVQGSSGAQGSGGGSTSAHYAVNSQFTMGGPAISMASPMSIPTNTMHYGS
Procedure: The enzymatic inhibitory activities of compounds were measured by the AlphaLISA assay provided by Shanghai ChemPartner Co., Ltd. The compounds selected from virtual screening were transferred to the assay plate (white opaque OptiPlate-384, PerkinElmer). 5 μL of enzyme solution (final concentration was 0.1 nM) or pH 8.0 tris-based assay buffer (for Min well) was added to the assay plate and then centrifuged at 1000 rpm for 1 min. Afterwards, the assay plate was incubated for 15 min at room temperature (RT). Then 5 μL of biotinylated H3 peptide/SAM mix (final concentrations were 50 nM and 300 nM, resp.) was added to the assay plate, which was covered with TopSeal-Afilm and incubated for 1 h at RT after centrifuging at 1000 rpm for 1 min (DMSO final concentration 1%). Next, 5 μL of acceptor beads (final concentration was 10 μg/mL) was added to stop the enzymatic reaction. […] Finally, the mixtures were incubated for 30 min at RT, and the signal was read in alpha mode using EnVision readers. The IC50 values were calculated by fit inhibition rates under different concentrations into GraphPad Prism 5.0 software. […] The end point was read in alpha mode using EnVision readers, and IC50 values were calculated in GraphPad Prism 5.0 software.

PRMT1 = PRMT1 (Homo sapiens, UniProt Q99873); assay: In vitro enzyme selectivity assay, PRMT1; format: biochemical; settings: in duplicate
Sequence of PRMT1 (Q99873 whole entry, species assumed): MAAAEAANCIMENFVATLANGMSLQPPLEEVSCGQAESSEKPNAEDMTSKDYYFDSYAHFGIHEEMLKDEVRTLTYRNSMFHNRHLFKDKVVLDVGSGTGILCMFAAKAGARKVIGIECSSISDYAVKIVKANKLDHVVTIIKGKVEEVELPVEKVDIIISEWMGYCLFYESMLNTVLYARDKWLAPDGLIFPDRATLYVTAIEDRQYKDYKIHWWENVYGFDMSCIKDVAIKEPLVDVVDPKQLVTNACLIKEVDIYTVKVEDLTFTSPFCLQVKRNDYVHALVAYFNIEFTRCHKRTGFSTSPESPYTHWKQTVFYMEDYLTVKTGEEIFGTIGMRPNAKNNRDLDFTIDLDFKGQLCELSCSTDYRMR
Procedure: (§2) The enzymatic inhibitory activities of compounds were measured by the AlphaLISA assay provided by Shanghai ChemPartner Co., Ltd. The compounds selected from virtual screening were transferred to the assay plate (white opaque OptiPlate-384, PerkinElmer). 5 μL of enzyme solution (final concentration was 0.1 nM) or pH 8.0 tris-based assay buffer (for Min well) was added to the assay plate and then centrifuged at 1000 rpm for 1 min. Afterwards, the assay plate was incubated for 15 min at room temperature (RT). Then 5 μL of biotinylated H3 peptide/SAM mix (final concentrations were 50 nM and 300 nM, resp.) was added to the assay plate, which was covered with TopSeal-Afilm and incubated for 1 h at RT after centrifuging at 1000 rpm for 1 min (DMSO final concentration 1%). Next, 5 μL of acceptor beads (final concentration was 10 μg/mL) was added to stop the enzymatic reaction. After incubating at room temperature for 60 min, 10 μL of donor beads was added (final concentration was 10 μg/mL) in subdued light and then centrifuged at 1000 rpm for 1 min. Finally, the mixtures were incubated for 30 min at RT, and the signal was read in alpha mode using EnVision readers. The IC50 values were calculated by fit inhibition rates under different concentrations into GraphPad Prism 5.0 software. […]

PRMT6 = PRMT6 (Homo sapiens, UniProt Q96LA8); assay: In vitro enzyme selectivity assay, PRMT6; format: biochemical; settings: in duplicate
Sequence of PRMT6 (Q96LA8 whole entry, species assumed): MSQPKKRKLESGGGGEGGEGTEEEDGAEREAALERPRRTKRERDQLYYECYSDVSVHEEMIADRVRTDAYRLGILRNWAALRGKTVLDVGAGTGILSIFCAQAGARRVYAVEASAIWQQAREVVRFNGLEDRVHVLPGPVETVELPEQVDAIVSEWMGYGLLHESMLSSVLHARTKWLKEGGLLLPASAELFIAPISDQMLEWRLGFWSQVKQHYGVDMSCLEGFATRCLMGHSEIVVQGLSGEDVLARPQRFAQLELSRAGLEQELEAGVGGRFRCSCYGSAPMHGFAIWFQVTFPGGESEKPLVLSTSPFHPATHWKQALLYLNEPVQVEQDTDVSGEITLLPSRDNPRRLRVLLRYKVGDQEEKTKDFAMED
Procedure: as §2

MCF7 (breast cancer) = assay: Cell viability (MTT) assay, MCF7; format: cell-based, human; settings: 24 hrs, 48 hrs, 72 hrs, Figure 2
Procedure: as §1

HELA (cervical cancer) = assay: Cell viability (MTT) assay, HELA; format: cell-based, human; settings: 24 hrs, 48 hrs, 72 hrs, Figure 2
Procedure: as §1

PRMT5 = PRMT5 (Homo sapiens, UniProt O14744); assay: In vitro enzyme selectivity assay, PRMT5; format: biochemical; settings: at a concentration of 50 μM; read-out: inhibition rate of PRMT5
Sequence of PRMT5 (O14744 whole entry, species assumed): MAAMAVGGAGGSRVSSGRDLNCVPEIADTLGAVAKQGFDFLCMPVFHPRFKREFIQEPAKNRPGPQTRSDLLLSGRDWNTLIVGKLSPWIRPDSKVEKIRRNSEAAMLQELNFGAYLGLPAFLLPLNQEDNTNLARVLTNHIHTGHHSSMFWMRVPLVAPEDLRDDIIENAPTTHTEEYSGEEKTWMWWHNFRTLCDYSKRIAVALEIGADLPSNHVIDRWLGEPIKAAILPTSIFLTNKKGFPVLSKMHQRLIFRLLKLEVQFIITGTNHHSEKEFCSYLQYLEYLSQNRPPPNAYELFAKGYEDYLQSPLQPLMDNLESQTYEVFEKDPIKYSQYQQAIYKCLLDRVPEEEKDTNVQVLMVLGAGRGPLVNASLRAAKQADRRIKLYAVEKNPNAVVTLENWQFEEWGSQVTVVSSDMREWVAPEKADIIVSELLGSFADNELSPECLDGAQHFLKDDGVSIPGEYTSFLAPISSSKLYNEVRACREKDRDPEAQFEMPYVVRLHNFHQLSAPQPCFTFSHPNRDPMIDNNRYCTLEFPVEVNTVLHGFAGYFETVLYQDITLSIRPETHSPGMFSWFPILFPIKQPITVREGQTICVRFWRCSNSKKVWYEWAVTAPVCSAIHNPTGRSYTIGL
Sequence of PRMT5 (Q9BQA1 whole entry partner, species assumed): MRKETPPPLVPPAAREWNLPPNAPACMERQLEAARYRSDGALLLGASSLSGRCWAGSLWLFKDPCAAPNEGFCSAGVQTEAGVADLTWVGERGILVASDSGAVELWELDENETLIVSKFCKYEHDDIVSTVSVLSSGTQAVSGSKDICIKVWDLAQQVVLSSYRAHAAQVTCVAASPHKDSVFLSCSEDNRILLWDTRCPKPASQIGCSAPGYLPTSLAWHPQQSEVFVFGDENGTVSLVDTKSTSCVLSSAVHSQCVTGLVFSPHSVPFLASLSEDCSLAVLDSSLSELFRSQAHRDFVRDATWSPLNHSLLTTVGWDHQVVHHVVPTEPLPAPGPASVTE
Procedure: as §2

Row | SMILES | Antiproliferative effect on K562 (K562 (myeloid leukemia)) | IC50 (CARM1) [µM] | IC50 (PRMT1) [µM] | IC50 (PRMT6) [µM] | Antiproliferative effect on MCF7 (MCF7 (breast cancer)) | Antiproliferative effect on HELA (HELA (cervical cancer)) | inhibition at 50 µM (PRMT5) [%]
1 | O=C(c1ccccc1)c1c2c(cc3sc4ccccc4[n+]13)-c1cccc3cccc-2c13 [DC_C11] | inhibit proliferation of cancer cells in a time-dependent and dose-dependent manner | 15 | 36 | 41 | inhibit proliferation of cancer cells in a time-dependent and dose-dependent manner | inhibit proliferation of cancer cells in a time-dependent and dose-dependent manner | 
2 | CCOC(=O)c1c2c3ccccc3c3ccccc3c2cc2[n+]1CCc1ccccc1-2 [DC_C66] | inhibit proliferation of cancer cells in a time-dependent and dose-dependent manner | 1.8 | 21 | 47 | inhibit proliferation of cancer cells in a time-dependent and dose-dependent manner | inhibit proliferation of cancer cells in a time-dependent and dose-dependent manner | < 50
3 | Nc1ncnc2c1ncn2[C@@H]1O[C@H](C[C@@H](N)CC[C@H](N)C(=O)O)[C@@H](O)[C@H]1O [Sinefungin, reference compound] | weaker inhibitory activity |  |  |  | weaker inhibitory activity | weaker inhibitory activity | 
